Broadly, the Ki is the equilibrium dissociation constant of an inhibitor or competing ligand from its target. The low end stands for a stronger hold on the target, the high end for a looser hold on the target.

The target of one test is Stromelysin-1 (Homo sapiens, UniProt P08254).
A further test addresses T1, Interstitial collagenase (Homo sapiens, UniProt P03956).
T1 sequence (P03956 whole entry): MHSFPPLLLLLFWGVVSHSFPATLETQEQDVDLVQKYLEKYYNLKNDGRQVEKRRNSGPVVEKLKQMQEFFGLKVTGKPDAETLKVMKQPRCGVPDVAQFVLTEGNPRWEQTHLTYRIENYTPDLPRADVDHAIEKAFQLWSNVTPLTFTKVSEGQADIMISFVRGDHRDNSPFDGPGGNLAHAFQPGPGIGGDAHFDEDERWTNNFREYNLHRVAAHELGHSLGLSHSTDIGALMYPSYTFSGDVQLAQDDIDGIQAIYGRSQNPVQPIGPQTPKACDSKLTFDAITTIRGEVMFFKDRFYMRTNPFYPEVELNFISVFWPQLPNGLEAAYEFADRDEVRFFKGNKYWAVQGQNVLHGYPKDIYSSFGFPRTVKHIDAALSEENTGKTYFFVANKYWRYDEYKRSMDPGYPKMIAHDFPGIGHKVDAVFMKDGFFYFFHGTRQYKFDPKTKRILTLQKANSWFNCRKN
The test is described as follows: Inhibition of human fibroblast collagenase (MMP-1).

In test [1] the target is 72 kDa type IV collagenase (Homo sapiens, UniProt P08253). The test can be described thus: Inhibition of human gelatinase A (MMP-2).
Chain of 72 kDa type IV collagenase (P08253 whole entry): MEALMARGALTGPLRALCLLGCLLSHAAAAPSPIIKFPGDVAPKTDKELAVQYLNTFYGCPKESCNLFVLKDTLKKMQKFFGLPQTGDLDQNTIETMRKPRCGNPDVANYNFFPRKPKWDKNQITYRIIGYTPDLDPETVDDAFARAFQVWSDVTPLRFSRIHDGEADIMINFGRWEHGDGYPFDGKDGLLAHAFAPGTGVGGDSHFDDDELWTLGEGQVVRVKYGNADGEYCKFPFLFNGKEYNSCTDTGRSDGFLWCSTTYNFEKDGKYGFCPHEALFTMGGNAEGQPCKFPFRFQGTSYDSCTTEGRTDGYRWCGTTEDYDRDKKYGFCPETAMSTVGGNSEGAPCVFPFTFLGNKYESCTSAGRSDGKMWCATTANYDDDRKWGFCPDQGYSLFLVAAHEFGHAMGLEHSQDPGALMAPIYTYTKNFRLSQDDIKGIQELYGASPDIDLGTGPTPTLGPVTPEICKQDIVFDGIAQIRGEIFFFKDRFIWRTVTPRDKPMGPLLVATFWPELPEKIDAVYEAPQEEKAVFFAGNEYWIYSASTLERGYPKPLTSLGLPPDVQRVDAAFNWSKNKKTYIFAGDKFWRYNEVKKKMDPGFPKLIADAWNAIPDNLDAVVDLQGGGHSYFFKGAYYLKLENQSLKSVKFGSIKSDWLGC

Chain of Stromelysin-1 (P08254 whole entry): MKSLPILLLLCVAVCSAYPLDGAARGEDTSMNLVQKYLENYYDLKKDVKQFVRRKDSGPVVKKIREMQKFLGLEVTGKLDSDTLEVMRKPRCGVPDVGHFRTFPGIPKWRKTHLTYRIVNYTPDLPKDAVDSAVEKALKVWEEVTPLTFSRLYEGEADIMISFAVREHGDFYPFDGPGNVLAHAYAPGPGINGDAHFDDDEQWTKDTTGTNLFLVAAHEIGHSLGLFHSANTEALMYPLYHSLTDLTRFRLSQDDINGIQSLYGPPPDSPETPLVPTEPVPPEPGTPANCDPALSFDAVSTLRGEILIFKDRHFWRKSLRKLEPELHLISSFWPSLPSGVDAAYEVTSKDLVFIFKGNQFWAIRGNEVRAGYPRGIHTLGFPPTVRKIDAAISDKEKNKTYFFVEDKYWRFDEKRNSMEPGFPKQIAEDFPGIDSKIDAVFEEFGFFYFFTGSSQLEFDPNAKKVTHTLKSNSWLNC
Description for Stromelysin-1: Inhibition of human fibroblast stromelysin (MMP-3)

As for `CCCCCCCC[C@H](N[C@H](C)C(=O)O)C(=O)N[C@@H](CC(C)C)C(=O)Nc1ccccc1`, the Ki on Stromelysin-1 was 570 nM; at Interstitial collagenase, greater than 10000 nM; in test [1], 340 nM.

For `C[C@@H](N[C@@H](CCCCCCCCCN)C(=O)N[C@@H](CCCN=C(N)N)C(=O)Nc1ccccc1)C(=O)O`, the inhibition constant (Ki) is 370 nM on Stromelysin-1, greater than 10000 nM at Interstitial collagenase and 110 nM in test [1].

Consider `CC(C)C[C@H](NC(=O)[C@H](CCCCCCCCCN)N[C@H](C)C(=O)O)C(=O)Nc1ccccc1`, for which the Ki was 240 nM on Stromelysin-1, greater than 10000 nM on Interstitial collagenase and 500 nM in test [1].

`CCCCCCCCCC[C@H](N[C@H](C)C(=O)O)C(=O)N[C@@H](CC(C)C)C(=O)Nc1ccccc1`: the inhibition constant (Ki) was 850 nM on Stromelysin-1, greater than 10000 nM at Interstitial collagenase and 560 nM in test [1].

Turning to `CC(C)C[C@H](NC(=O)[C@H](CCc1ccccc1)N[C@H](C)C(=O)O)C(=O)Nc1ccccc1` [L-696418], the Ki was 760 nM at Interstitial collagenase and 200 nM in test [1].

On to `CCCCCCCC[C@H](N[C@H](C)C(=O)O)C(=O)N[C@@H](CCCN=C(N)N)C(=O)Nc1ccccc1`, for which the Ki at Stromelysin-1 was 1600 nM; at Interstitial collagenase, greater than 10000 nM; in test [1], 120 nM.
